Laboratory results published in patent publication US7931742B2, “Biocidal Structural Barrier (BSB)” (BASF SE, priority 2005, dated 2011).

System: termites
Test: Anti-termite effectiveness of chlorfenapyr incorporated in a concrete block (barrier test after NF X41-541)
Format: in vivo
Protocol: A block of concrete, 10 cm high, with passages for the termites, is poured, incorporating the treatment product in the mixing water.
After drying and an infiltration test, the test set-up and performance follow the standard NF X41-541. The barrier effect of the specimen is verified by evaluation of the mortality and penetration of the termites in the clean compartment containing blocks of wood. An evaluation of the blocks of wood following the scoring of EN NF 117 is performed at the end of the test.

## CCOCn1c(-c2ccc(Cl)cc2)c(C#N)c(Br)c1C(F)(F)F [chlorfenapyr]
Concrete treated with chlorfenapyr, overall conclusion
  Barrier effect of treated concrete against termites: effectively prevents termites from attacking a building
Series A: concentration studied 0.05 % (m/m), retention in the concrete: product 261 ppm, chlorfenapyr 56 ppm, 132 g/m^3
  Rate of survival %: 0%
Series B: concentration studied 0.1 % (m/m), retention in the concrete: product 521 ppm, chlorfenapyr 112 ppm, 265 g/m^3
  Rate of survival %: 0%
Series C: concentration studied 0.3 % (m/m), retention in the concrete: product 1567 ppm, chlorfenapyr 337 ppm, 795 g/m^3
  Rate of survival %: 0%
Series D: concentration studied 0.6 % (m/m), retention in the concrete: product 3132 ppm, chlorfenapyr 673 ppm, 1588 g/m^3
  Rate of survival %: 0%
